Assay results: patent publication US6428971B1, “Teichoic acid enzymes and assays” (priority 1996, dated 2002)

B1: TAP: recombinant B. subtilis rodC (tagF) gene product overexpressed in E. coli DH10B/pBSRODC1, SEQ ID NO 2 with alanine to valine change (protein)
chain: MSLVVDTNKRKQKGKSFYTEEQKKVMIENTVIKCILKSLKNNLGSLELLISIDSEHQFLEDYQLFLKLKERRSGTESEFPLQNTGSLEYKTEINAHVLPMPVEMGQTYDFYVEFRKKYEDAEQEPLLKRLSAEVNSIERAFHVDQTTELLILPYTTDKGNFSIKVKREAKIIRFDQIEISSEEISITGYAGYLSSENQYRIKNLNLILKKGGETPIEEKFPIKLERKTHGLENMRADGFVPELYDFEVKVPLKEIPFSNEKRYVYRLFMEYICNDDEGTDIQFNSTALVLGDRKNKLKGLVSIIKTNNAPVRYEVFKKKKKQTLGIRVNDYSLKTRMKYFIKGKKKRLVSKIKKITKMRNKLITKTYKSLFMMASRMPVKRKTVIFESFNGKQYSCNPRAIYEYMRENHPEYKMYWSVNKQYSAPFDEKGIPYINRLSLKWLFAMARAEYWVVNSRLPLWIPKPSHTTYLQTWHGTPLKRLAMDMEEVHMPGTNTKKYKRNFIKEASNWDYLISPNGYSTEIFTRAFQFNKTMIESGYPRNDFLHNDNNEETISLIKSRLNIPRDKKVILYAPTWRDDQFYAKGRYKFDLDLDLHQLRQELGNEYIVILRMHYLVAENFDLGPFEGFAYDFSAYEDIRELYMVSDLLITDYSSVFFDFANLKRPMLFFVPDIETYRDKLRGFYFDFEKEAPGPLVKTTEETIEAIKQISSPDYKLPVSFGPFYDKFCYLESGRSSEKVVNTVFKAE

Experiments:
TAP [1] = target: T1, TAP (Bacillus subtilis, UniProt P13485, A616V); assay: TAP enzyme assay (acid precipitation of radioactive lipoteichoic acid); assay type: biochemical, B. subtilis; conditions: alanine ester removed in 0.1M Tris-HCl pH 8.0, 24 hr, 37° C.
T1 construct: corresponds to a 2163 bp open reading frame beginning with ATG at bp 100 and ending with TAA at bp 2263; made in house; host or cells: E. coli DH10B / pBSRODC1 (pTrc99A vector); membrane preparation, 2M NaCl extract, High Q fraction
T1 sequence (P13485 26-746 A616V): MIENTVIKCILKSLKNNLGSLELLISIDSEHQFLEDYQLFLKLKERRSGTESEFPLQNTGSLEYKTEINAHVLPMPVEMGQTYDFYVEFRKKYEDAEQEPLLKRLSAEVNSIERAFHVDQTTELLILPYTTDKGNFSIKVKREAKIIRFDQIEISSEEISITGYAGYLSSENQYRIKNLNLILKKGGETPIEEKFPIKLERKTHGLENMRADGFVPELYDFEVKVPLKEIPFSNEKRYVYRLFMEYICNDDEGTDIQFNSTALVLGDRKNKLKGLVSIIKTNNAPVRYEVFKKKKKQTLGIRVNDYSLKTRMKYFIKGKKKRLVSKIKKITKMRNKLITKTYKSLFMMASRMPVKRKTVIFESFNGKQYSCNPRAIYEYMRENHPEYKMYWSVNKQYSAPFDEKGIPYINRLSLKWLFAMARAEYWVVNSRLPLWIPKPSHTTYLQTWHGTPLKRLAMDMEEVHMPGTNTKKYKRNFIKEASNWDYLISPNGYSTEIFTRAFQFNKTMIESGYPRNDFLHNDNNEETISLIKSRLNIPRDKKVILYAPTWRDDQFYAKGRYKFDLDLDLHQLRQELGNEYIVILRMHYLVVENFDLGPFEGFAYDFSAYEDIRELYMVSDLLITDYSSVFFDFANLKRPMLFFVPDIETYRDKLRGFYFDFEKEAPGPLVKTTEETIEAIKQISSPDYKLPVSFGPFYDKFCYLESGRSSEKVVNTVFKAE
Method: (§1) The enzymatic activity of TAP was assayed using CDP[^3H]glycerol as the glycerolphosphate donor and B. subtilis lipoteichoic acid as the acceptor. If active, the recombinant TAP enzyme should lengthen lipoteichoic acid with radioactive glycerolphosphate monomers, producing acid precipitable radioactivity. […] Extraction of TAP from the E. coli membrane with 2 M NaCl produced an active TAP preparation that could be separated from the cell membrane by ultracentrifugation.
(§2) The method of Burger and Glaser was generally followed. Burger M M, Glaser L. “The synthesis of teichoic acids” J. Biol. Chem. (1964) vol. 239, pp. 3168-3177, incorporated by reference. A typical assay contained 1-100 μl of enzyme, 10 μl of lipoteichoic acid (1 mg/ml B. subtilis lipoteichoic acid [Sigma] in water), 25 μl of CDP[^3H]glycerol (10 mM CDPglycerol Specific Activity 8.8 μCi/μMole), and enough Buffer A to bring the total volume to 250 μl. The reaction was incubated at 37° C. for one hour, mixed with 80 μl of 3N perchloric acid, and placed on ice for 5 min. The acid treated sample was spotted on a GF/C filter and washed with 4×5 ml of 0.15 N perchloric acid before liquid scintillation counting. Control reactions lacking either lipoteichoic acid or CDP[^3H]glycerol were included as negative controls.
(§3) The method of Burger and Glaser was generally followed. […]

TAP [2] = target: T2, TAP (Bacillus subtilis, UniProt P13485); assay: as above; assay type: biochemical, B. subtilis; conditions: lipoteichoic acid from either B. subtilis, S. aureus, or E. faecalis
T2 construct: corresponds to a 2163 bp open reading frame beginning with ATG at bp 100 and ending with TAA at bp 2263; made in house; host or cells: E. coli DH10B / pBSRODC1 (pTrc99A vector); membrane preparation, 2M NaCl extract, High Q fraction
T2 sequence (P13485 26-746 A616V): as above
Method: as §1, §2, §3

[3] = Storage stability of the TAP enzyme; assay type: physicochemical; conditions: stored in ice

Row | Molecule | effect of alanine removal from lipoteichoic acid on activity of the recombinant TAP enzyme (TAP [1]) | acceptor of CDP[3H]glycerol (substrate for TAP) (TAP [2]) | stability of the enzyme on storage [3]
1 | lipoteichoic acid | improved activity | could serve as an acceptor | 
2 | B1 |  |  | stable for two weeks
